Consider one compound from EP0001516A1, “Beta-Lactam compounds, processes for their preparation, pharmaceutical compositions containing them and intermediates of use in their preparation” (GLAXO GROUP LIMITED, priority 1977, dated 1979).

Data set [1] deals with partially purified β-lactamase K1. Nature of the data set: β-Lactamase inhibition (hydrolysis of ampicillin). In kind it is biochemical. The note with it: β-lactamase KI; ampicillin sodium 500 µg/ml, 37°C, pH7. As for the experimental part: (§1) The compounds have been tested for their inhibitory activity against partially purified β-lactamases from Escherichia coli (either TEM or RPI), Klebsiella aerogenes (K1) and Staphylococcus aureus (PCI). The substrate used was ampicillin sodium.
(§2) Ampicillin sodium at a concentration of 500 µg/ml was reacted with the enzyme at 37°C and pH7. The enzyme concentration was such as to destroy all the ampicillin within 10 minutes. The reaction was followed spectrophotometrically by observing the loss of absorption at 238 nm. Concentrations of the compound were added to inhibit the reaction, and the I5O value represents µg/ml of compound halving the initial velocity of hydrolysis of ampicillin.

The target in data set [2] is T1, partially purified β-lactamase PCI (Staphylococcus aureus, UniProt P00807).
T1 construct: partially purified β-lactamases from Escherichia coli (either TEM or RPI), Klebsiella aerogenes (K1) and Staphylococcus aureus (PCI); endogenous in cells; host or cells: Staphylococcus aureus (PCI), enzyme partially purified from the producing bacterium
Briefly: β-Lactamase inhibition (hydrolysis of ampicillin). The class given is biochemical. The conditions noted are these: ampicillin sodium 500 µg/ml, 37°C, pH7, read-out: μg/ml of compound giving 50% inhibition of hydrolysis of ampicillin (converted). As for the experimental part:
as §1, §2

The test system of the next data set is E. coli 851E. Briefly: Minimum Inhibitory Concentration (MIC), agar dilution. In kind it is cell-based. The conditions noted are these: 18 hours at 37°C. The source says:
(§3) Serial two-fold dilutions of freshly prepared test solution were made into Oxoid No. 1 Nutrient agar with or without added enrichment and poured into petri dishes. Plates were innoculated with a multipoint innoculator with innoculum containing approximately 10^5 colony forming units of the organisms shown in Table 1, all of which are clinical isolates.

Data set [3] concerns Staph. aureus 853E. The description is as above. In kind it is cell-based. The note with it: Staph. aureus 853E; 18 hours at 37°C.
Source text: as §3

A further data set has as its system H. influenzae 1184E. The description is as above. The class given is cell-based. The conditions noted are these: 18 hours at 37°C.
Source text: as §3

Another data set concerns E. cloacae 1051E. Described as above. In kind it is cell-based. The conditions noted are these: 18 hours at 37°C.
Source text: as §3

In a further data set the test system is S. marcescens 1324E. The description is as above. In kind it is cell-based. The note with it: 18 hours at 37°C.
Source text: as §3

The test system of another data set is Micrococcus SP 1810E. Described as above. The note with it: 18 hours at 37°C. The class given is cell-based.
Source text: as §3

In another data set the test system is E. cloacae 1321E. The data set is described as above. The conditions noted are these: 18 hours at 37°C. In kind it is cell-based.
Source text: as §3

A further data set has as its system K. aerogenes 1522E. The data set is described as above. The class given is cell-based. The note with it: 18 hours at 37°C.
Source text: as §3

Data set [4] has as its system Staph. aureus 853E. Briefly: Synergy testing with amoxycillin (MIC, agar dilution). In kind it is cell-based. The note with it: in the presence of 1µg/ml of compound.
Source text: as §3
(§4) Method as for 1, incorporating amoxycillin in serial two-fold dilutions along with a sub-inhibitory, fixed concentration of the test clavulanic acid derivative, as shown in the Table. All of the organisms are clinical isolates.
(Agar dilution tests growth on a series of plates holding different concentrations.)

The next data set relates to K. aerogenes 1963E. Described as above. In kind it is cell-based.
Source text: as §3, §4

In another data set the test system is Pr. rettgeri 1356E. Described as above. In kind it is cell-based.
Source text: as §3, §4

The next data set relates to E. coli (TEM^+) 1193E. The description is as above. In kind it is cell-based.
Source text: as §3, §4

A short description of a further data set: Toxicity in mice. The conditions noted are these: mouse, in vivo, ip; administered intraperitoneally to mice.
The mark [5] stands for this setting: in the presence of 1µg/ml of compound.
Setting [6] is: in the presence of 4µg/ml of compound.

Broadly, the LD50 is the dose at which mortality reaches 50%. A higher LD50 goes with lower toxicity.

T1 sequence (P00807 25-281): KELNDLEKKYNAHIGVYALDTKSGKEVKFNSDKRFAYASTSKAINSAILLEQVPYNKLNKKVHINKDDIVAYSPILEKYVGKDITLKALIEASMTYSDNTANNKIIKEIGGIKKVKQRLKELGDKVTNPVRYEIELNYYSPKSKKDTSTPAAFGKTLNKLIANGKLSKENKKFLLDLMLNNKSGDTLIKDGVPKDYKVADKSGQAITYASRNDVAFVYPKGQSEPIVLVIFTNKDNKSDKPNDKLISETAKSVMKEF

Take `CNC(=O)c1cn(C/C=C2\O[C@@H]3CC(=O)N3[C@H]2C(=O)O)nn1` [Example 14, Sodium (3R,5R.Z)-2-{2-[4-(N-methylcarbamoyl)-1.2.3-triazol-1-yl]-ethylidene}-clavam-3-carboxylate]: the “μg/ml of compound giving 50% inhibition of hydrolysis of ampicillin” value in data set [1] turned out to be 0.7 µg/mL. The IC50 in [2] is 2.18 µM. Also, the “MIC (agar dilution) of compound” value amounted to 8 µg/mL in the data set with E. coli 851E; 1 µg/mL against Staph. aureus 853E [3]; 31 µg/mL against H. influenzae 1184E; 16 µg/mL in the data set with E. cloacae 1051E; 31 µg/mL in the data set with S. marcescens 1324E; 1 µg/mL with Micrococcus SP 1810E. Also, the “MIC (agar dilution) of compound” value in the data set with E. cloacae 1321E and with K. aerogenes 1522E was 16 µg/mL each time. Moreover, the MIC of amoxycillin in the data set with Staph. aureus 853E [4] is < 0.1 µg/mL; with K. aerogenes 1963E (setting [5]) it was 8 µg/mL; in the data set with K. aerogenes 1963E (setting [6]) it was 0.2 µg/mL; with Pr. rettgeri 1356E (setting [5]), 8 µg/mL; in the data set on Pr. rettgeri 1356E (setting [6]), 1 µg/mL; in the data set on E. coli (TEM^+) 1193E (setting [5]) it was 62 µg/mL. Besides, the MIC of amoxycillin with E. coli (TEM^+) 1193E (setting [6]) amounted to 4 µg/mL. Besides, the LD50 in the data set “Toxicity in mice” is > 500 mg/kg.
